# Test results from a melting point compilation (Tetko et al.; mined from patent text by program, amines drawn as free bases though some values may be those of a salt).
row,SMILES,melting point
1,CC1CC(C)(C)NC(c2ccccc2)=N1 (stereo not given),86 to 87 °C
2,CCCOc1cc(COc2c(CC)cccc2CC(=O)O)n(Cc2ccc3ccccc3n2)n1,110 to 111 °C
3,COCC1CN(c2ccc(C3CCNCC3)cc2)C(=O)O1 (racemic),161 to 163 °C
4,c1ccc(CN2CCN(c3n[nH]c4c3CCc3ccccc3-4)CC2)cc1,254 to 256 °C
5,CC(C)(C)OC(=O)[C@@H]1CC[C@@H]2CN1C(=O)N2OCc1ccccc1,83 °C
6,N#Cc1ccc(ON=C2CCCC(C(=O)O)C2)cc1 (stereo not given),153 to 154 °C
7,NS(=O)(=O)NCC=Cc1ccccc1,118 °C
8,COc1cccc2c1Sc1ccc(Cl)cc1C2,95 to 96 °C
9,O=C(O)c1ccc(CC2(C(=O)O)CCCN2C(=O)Nc2cc(Cl)cc(Cl)c2)cc1 (stereo not given),145 °C
10,CCOC(=O)c1c(C(F)(F)F)nc(C(F)F)c(C(=O)OC)c1OC(C)C,29 to 31 °C
11,COc1ccc(C2CCCCC2)cc1-c1csc(N)n1,67 °C
12,COC(=O)c1ccc(OCCC[Si](C)(C)C)cc1O,32 to 33 °C
13,Cc1ccc(CC2(O)CCN(CCOC(=O)c3ccc(OCc4ccccc4)cc3)CC2)cc1,102 °C
14,COc1cc(I)c(C(=O)OC(C)COC(=O)c2ccc3c(c2I)OCO3)cc1OC (stereo not given),131 to 133 °C
15,COC(=O)CCc1cnoc1-c1ccc(Cl)c(Br)c1,54 to 55 °C
16,O=C(O)c1ccc2c(oc3ccccc32)c1C(=O)O,260 to 262 °C
17,CC(C)N(C(=O)CN1C(=O)C(C)(CC(=O)Nc2ccccc2)C(=O)N(c2ccccc2)c2ccccc21)c1ccccc1 (stereo not given),228 to 229 °C
18,COc1cc2nc(N)nc(-c3ccccc3OC(F)(F)F)c2cc1OC,235 to 237 °C
19,Cn1cc(C(=O)NCc2ccc(Cl)cc2)c(=O)c2cccc(C#CCO)c21,228 to 230 °C
20,N=C(NC(=O)OCc1ccccc1)N(C(=O)OCc1ccccc1)C1CCC(CCN2CCN(c3ccccc3)CC2)CC1 (stereo not given),136 to 137 °C
21,Cc1ccc2c(c1)c(-c1ccc(F)cc1)cn2N1CCN(C)CC1,105 to 107 °C
22,CCc1nc(Cl)c([N+](=O)[O-])c(NC2CC2)n1,61 to 62 °C
23,CCN(c1ccc(Br)cc1)c1nc(=O)c2cccnc2s1,166 to 167 °C
24,NS(=O)(=O)c1ccc(-n2nc(C(F)(F)F)c(Cl)c2-c2ccc(Cl)cc2)cc1,180 to 182 °C
25,O=S1(=O)c2cccc3cccc(c23)N1CCN1CCC(CC2=Cc3ccccc3C2)CC1,176 °C

row,SMILES,melting point
1,Cc1cccc(NC(=O)N(C)c2nc(-c3ccccc3)c(-c3ccc(=O)n(C(C)C)n3)s2)c1,157 to 158 °C
2,O=C(/C=C/C=C/c1ccccc1)NCCCCC(=O)NO,168 to 170 °C
3,COC(COC(C)=O)C1(O)CCC2C3CCC4=CC(=O)CCC4(C)C3CCC21C (stereo not given),145 to 147 °C
4,CN1CCN(c2cc(Cl)cc3c2c(=O)n(Cc2ccccc2Cl)c(=O)n3Cc2ccccc2)CC1,87 to 92 °C
5,COc1ccc(-c2nc(C(F)(F)F)cn2-c2ccc(C#N)cc2)cc1,146 to 148 °C
6,COc1ccc2c(c1)OC(CNCCCOc1ccc3c(=O)ccoc3c1)CO2 (stereo not given),155 to 157 °C
7,CS(=O)(=O)Nc1ccc(C(=O)O)cc1Oc1ccc(F)cc1F,167 to 169 °C
8,CCCCCCCCNC(=O)Nc1nc2nc(NCCCN3CCN(C)CC3)ncc2cc1-c1c(Cl)cccc1Cl,54.5 to 57.5 °C
9,Cc1[nH]c(=O)[nH]c1-c1cc(C(C)(C)C)c(O)c(C(C)(C)C)c1,> 270 °C
10,CC(C)(CO)c1ccc(C(=O)Nc2cn3cc(-c4ccoc4)ccc3n2)cc1,246 to 248 °C
11,CS(=O)(=O)Cc1ccc(Oc2cc(OC3CCOCC3)c3[nH]c(C4=NCC(CC(N)=O)S4)cc3c2)cn1 (stereo not given),164 to 167 °C
12,N#Cc1ccc(COc2ccc(CC(NC(=O)c3cn4ccc(-c5ccc(Cl)cc5)cc4n3)C(=O)O)cc2)cc1 (stereo not given),263 °C
13,CC(Cc1cccnc1)(NC(=O)OC1C2CC3CC(C2)CC1C3)C(=O)NCCc1ccccc1 (stereo not given),167 to 169 °C
14,CC1=C(C)[C@]23OC[C@](C)(CCC2=C(C)C1=O)O3,99 to 100 °C
15,Cc1ccc(C2COc3c(C)c(C)c(NCc4ccccc4)c(C)c32)nc1 (stereo not given),104 to 105 °C
16,c1ccc(-c2ccc(COc3ccc4c(c3)CCC(CCn3ccnc3)C4)cc2)cc1 (stereo not given),145 to 146 °C
17,N#CCSC(=O)c1ccc(C#N)cc1,132 to 134 °C
18,O=C(O)c1cc(Br)c(Cl)s1,> 200 °C
19,CC(=O)Nc1ccc(OCCCCO[N+](=O)[O-])cc1,92 to 98 °C
20,NS(=O)(=O)c1ccc(-n2nc(C(F)F)cc2-c2ccc(Cl)cc2)cc1,185 to 186 °C
21,O=C(O)C1=Cc2cc(Cl)c(Oc3ccc(Cl)cc3Br)cc2OC1C(F)(F)F (stereo not given),224 to 226 °C
22,O=C(OCN1C(=O)CN(CCN2CC(=O)N(COC(=O)c3cccs3)C(=O)C2)CC1=O)c1cccs1,158 to 160 °C
23,C#CC1(OC(C)=O)CCC2C3CCc4cc(OC)ccc4C3CCC21CC (stereo not given),178 to 182 °C
24,CN(C)CCCn1c2c(c3ccccc31)CCS(=O)(=O)CCC2,119 to 120 °C
25,COc1ccc2nc3ccc(C(N)=O)cn3c(=O)c2c1,> 310 °C

row,SMILES,melting point
1,Clc1cc(Cl)n2nc(SCc3ccccc3)nc2n1,97 to 100 °C
2,Cn1ncc(C(=O)O)c1C(=O)Nc1ccn2nc(-c3cccc(F)c3)nc2c1,> 260 °C
3,COc1ccc(C)c(NC(=O)C(C)=Cc2ccccc2)c1,125 to 126 °C
4,Cc1cccc(-c2n[nH]cc2-c2ccc(F)c(-c3ccc(S(N)(=O)=O)s3)c2)n1,125 °C
5,CCCc1c(OCCCS(=O)(=O)c2ccc(CC(=O)O)cn2)ccc(C(C)=O)c1O,154 to 156 °C
6,CS(=O)(=O)n1c2cc(O)c(O)cc2c2c(Br)cc(O)c(O)c21,> 270 °C
7,CN1CC(=O)Nc2ccsc2C1=O,270 to 272 °C
8,CC(=O)Nc1cnc(C2OCCO2)cc1C,98 to 99 °C
9,O=[N+]([O-])Cc1cccc(OCc2ccccc2)c1,55 to 56 °C
10,CC(C)(C)OC(=O)CN1C(=O)[C@@H](NC(=O)OC(C)(C)C)CC(=O)c2ccccc21,75 to 77 °C
11,Nc1c(Br)cc(Br)c(CCC(=O)O)c1Br,195 to 197 °C
12,CC(C)(C)OC(=O)n1[nH]c(=O)c2ccccc21,145 °C
13,CCCCCCCCCCCC(=O)Nc1ccc(O)c(C(=O)O)c1,201 to 205 °C
14,CN(C)Cc1nc(CO)nn1-c1ccc(Cl)cc1C(O)c1ccccc1 (stereo not given),121 to 123 °C
15,C#CCOc1cc(C2(C(F)(F)F)CC(=O)NC(OCC)=N2)c(F)cc1Br (stereo not given),101 to 102 °C
16,CCCc1nc2c(N)nc3cccnc3c2n1CCCC(C)N(OC)C(C)=O (stereo not given),158 to 159 °C
17,O=[N+]([O-])c1ccc(Oc2ccc(C(F)(F)F)cc2Cl)cc1NCP(=O)(O)O,148 to 150 °C
18,CC1SC(=O)NN=C1c1ccc2c(c1)C(C)(C)C(=O)N2C(=O)c1cccnc1 (stereo not given),245 °C
19,CN1Cc2ccccc2C(=O)c2cc(CC(=O)NO)ccc21,137 to 141 °C
20,c1ccc(CN2C[C@@H]3SCCC(c4ccccc4)(c4ccccc4)[C@@H]3C2)cc1 (racemic),130 °C
21,O=C1C2C[C@H](O)CN2C(=O)N1c1ccc([N+](=O)[O-])c2ccccc12 (stereo not given in full),246 to 248 °C
22,O=C1c2ccccc2CCC1C(=O)C(F)(F)F (stereo not given),48 to 49 °C
23,Cn1cc(C(=O)NCCCN)c(Nc2ccc(I)cc2F)cc1=O,201 to 206 °C
24,COc1cc(C(=O)NS(=O)(=O)c2ccccc2)ccc1Cn1ncc2ccc(NC(=O)CC3CCCC3)cc21,167 to 169 °C
25,CCOC(=O)c1cc(=O)c2ccc(C)cc2o1,62 to 64 °C

row,SMILES,melting point
1,COC(=O)CCCCC(O)c1ccc2c(c1)CCCC2 (stereo not given),107 to 108 °C
2,COc1cc2cc(C(=O)N3CC(CCl)c4c3cc([N+](=O)[O-])c3cc(S(=O)(=O)NCCO)ccc43)[nH]c2c(OC)c1OC (stereo not given),257 to 258 °C
3,CCO/C(=N/OC(C)=O)C1Cc2cc(C(=O)CC)c(O)c(Cl)c2O1 (stereo not given),140 to 142 °C
4,CNC(=S)NCCCSc1nc(C)co1,73 to 74 °C
5,O=c1c2ccccc2ccc2ccc(S(=O)(=O)C(F)(F)F)cc12,145 to 149 °C
6,ClCc1ccc2cc(Cl)ccc2c1,107 to 110 °C
7,CCOC(=O)c1cc2n(n1)CCOC2,63 °C
8,N#CCCOc1ccc(Oc2ccccc2)cc1,81 to 83 °C
9,O=C(Nc1cccc(C(F)(F)F)c1)Nc1ccc(OCc2ccccc2)cc1O,184 to 185 °C
10,CC(C)(C)c1cc(N=Nc2ccc(Cl)cc2Cl)c(O)c(C(C)(C)C)c1,164 to 168 °C
11,CC(Oc1ccccc1[N+](=O)[O-])C(=O)NCCO[N+](=O)[O-] (stereo not given),65 to 67 °C
12,COc1ccccc1-c1cc(NC(=O)[C@H]2CCCNC2)ncn1,163 to 165 °C
13,ON=C1CCOc2cc(Cl)c(Cl)cc21,192 to 193 °C
14,Cn1c2ccccc2c2sc3c(C=O)cccc3c21,128 to 130 °C
15,Cc1cc(C(=O)O)ccc1C1=CCC2CC1C2(C)C (stereo not given),139 to 140 °C
16,CC1(CCOc2ccc(/C=C/C(=O)O)c(Oc3ncc(C(F)(F)F)cc3Cl)c2)OCCO1,144 to 146 °C
17,COc1ccc(C=C(C)C(=O)O)cc1F,167 to 169 °C
18,CCOC(=O)c1cn(CC)c2nc(N3CCN(C=O)CC3)ncc2c1=O,195 °C
19,CCOC(=O)COc1coc(C)cc1=O,95 to 98 °C
20,CN(C)c1ccc(C(=O)Nc2cc(C(=O)NCc3ccccc3)ccn2)cc1,160 to 165 °C
21,COc1cccc(C(C)n2nc(C(=O)O)c3c2-c2ccc(OCc4cncnc4)cc2CC3)c1 (stereo not given),200 to 201 °C
22,O=C(O)COCCCCS(=O)(=O)c1cnc(-c2ccccc2)c(-c2ccccc2)n1,123 to 125 °C
23,O=C(CC1CCCC1)Nc1ccc2c(c1)C(=O)CCC2,117 to 118 °C
24,CCOC(=O)C(=O)c1oc(-n2ccnc2C)nc1-c1ccc(Cl)cc1,126 to 127 °C
25,COc1cc(COc2cccc3c2CN(C2CCC(=O)NC2=O)C3=O)ccc1OCCN1CCCC1 (stereo not given),160 to 162 °C
